Data reported in patent EP0007206A1, “Phenethanolamines, their formulations, preparation and use” (ELI LILLY AND COMPANY, priority 1978, dated 1980).

How the values were obtained:
Assay type in all cases: in vivo, mice
[1] = test system: adenocarcinoma tumor resembling human breast tumor (the 755 tumor system); assay: combination chemotherapy with 6 MP, implanted 755 adenocarcinoma (Table 2); conditions: 6 MP 1.5 mg./kg. orally once daily, A 3.75 mg./kg. s.c. twice daily
Procedure: (§1) In a typical experiment, laboratory mice were infected by a subcutaneous implantation of a tumor tissue in the axillary region of the body. The implantations were accomplished by means of a trocar. Initial tumor size in each animal generally was about 2 square millimeters. Tumor size was then measured periodically as length and width in mm. Typical tumor systems implanted included adenocarcinoma 755, an Aly Fast strain of bronchiogenic carcinoma, and mecca lymphosarcoma. Oncolytic agents utilized in the tests to determine the potentiating effects of the compounds of the invention.include cytoxan, 5-fluorouracil, vindesine, methotrexate and 6-mercaptopurine. […] Ten infected animals normally were selected to receive a known oncolytic agent. Another ten infected animals were administered the known oncolytic agent in addition to a compound of this invention.
According to the test, 6 MP was administered alone to 10 mice orally at the dose of 1.5 mg./kg. once each day for twenty-eight days. Another group of ten mice received 6 MP daily (1.5 mg./kg.) plus the compound of this invention (A), which was administered subcutaneously at the rate of 3.75 mg./kg. twice daily for twenty-eight days. […] The average tumor size for the test group on the indicated day of measurement is reported in column I under each of the reported days of measurement. In column II of each of the reported days of measurement is recorded the number of surviving animals out of the particular test group.

[2] = test system: 755 adenocarcinoma; assay: combination chemotherapy with 6-mercaptopurine, implanted 755 adenocarcinoma (Table 7); conditions: by day 29; 6 MP 4 mg./kg. i.p. once per day on days 5, 9, 13
Procedure: (§2) In a typical experiment, laboratory mice were infected by a subcutaneous implantation of a tumor tissue in the axillary region of the body. The implantations were accomplished by means of a trocar. Initial tumor size in each animal generally was about 2 square millimeters. Tumor size was then measured periodically as length and width in mm. Typical tumor systems implanted included adenocarcinoma 755, an Aly Fast strain of bronchiogenic carcinoma, and mecca lymphosarcoma. Oncolytic agents utilized in the tests to determine the potentiating effects of the compounds of the invention.include cytoxan, 5-fluorouracil, vindesine, methotrexate and 6-mercaptopurine. Twenty or thirty infected animals generally were selected as controls and received placebo. Ten infected animals normally were selected to receive a known oncolytic agent. Another ten infected animals were administered the known oncolytic agent in addition to a compound of this invention.
Mice were infected by implantation of a 755 adenocarcinoma. Thirty mice were held as controls and received only placebo. Ten mice were administered 4 mg./kg. of 6-mercaptopurine (6 MP) intraperitoneally once per day on the fifth, ninth and thirteenth days following implantation. […]

[3] = test system: mecca- lymphosarcoma; assay: combination chemotherapy with 5 FU, implanted mecca lymphosarcoma (Table 3); conditions: 5 FU 4 mg./kg. i.p. once daily, A 18.75 mg./kg. s.c. twice daily
Procedure: as §2
A similar study was carried out to determine the synergistic effect of N-(2-phenyl-2-hydroxyethyl)-1,1-dimethyl-3-(4-hydroxyphenyl)-propylaminium bromide (compound A) on the antineoplastic activity of 5-fluorouracil (designated in Table 3 as 5 FU) in the treatment of a mecca- lymphosarcoma in mice. 5-Fluorouracil was administered intraperitoneally at the rate of 4 mg./kg. once each day to a group of five test animals. Another group of five infected animals received the combination of 4 mg./kg. of 5 FU given intraperitoneally once each day plus the potentiating agent (compound A) given subcutaneously twice each day at the dose of 18.75 mg./kg. A group of 20 infected animals received placebo. Measurements of average tumor size for each group of animals were made on the tenth, fourteenth and eighteenth day following initial tumor implantation and dosing. Column I under each of the reported days gives the average tumor size in square millimeters. Column II under each of the reported days gives the number of surviving animals out of each test group. […] Moreover, after eighteen days of treatment, three of the five animals receiving combination chemotherapy were still alive, whereas all of the control animals and those receiving 5-FU alone had died.

[4] = test system: 755 adenocarcinoma; assay: combination chemotherapy with 5-fluorouracil, implanted 755 adenocarcinoma (Table 6); conditions: for number of tumor free animals out of those still living / average tumor size: 5 FU 8 mg./kg. i.p. days 5, 9, 13, B 7.5 mg./kg. s.c. twice daily days 5 through 14
Procedure: as §1
5-Fluorouracil is essentially ineffective against the 755 adenocarcinoma in mice. […] Mice were infected by an implantation of the 755 adenocarcinoma. Thirty animals were given placebo, ten were given 5-fluorouracil alone, and ten were given N-(2-phenyl-2-hydroxyethyl)-1,1-dimethyl-3-(4-aminocarbonylphenyl)propylaminium chloride in combination with 5-fluorouracil. Treatment in all cases was started five days after implantation of the tumor system. 5-Fluorouracil was administered intraperitoneally at the rate of 8 mg./kg. given once on days 5, 9 and 13 following implantation, both to the animals receiving 5-FU alone and the combination. The animals undergoing combination chemotherapy received, in addition to 5-FU, N-(2-phenyl-2-hydroxyethyl)-l,l-dimethyl-3-(4-aminocarbonylphenyl)propylaminium chloride (compound B) at the rate of 7.5 mg./kg. given subcutaneously twice daily on days 5 through 14 of the test. Column I under each of the days of measurement reports the average tumor size in square millimeters of each test group. Column II under each of the days of measurement is the number of tumor free animals out of those still living on that day.

Structure (SMILES): Sc1ncnc2nc[nH]c12 [6 MP, 6-mercaptopurine]
- number of surviving animals out of test group ([1]; Day 0): 10/10
- average tumor size ([1]; Day 9): 100 square millimeters
- number of surviving animals out of test group ([1]; Day 9): 9/10
- average tumor size ([1]; Day 17): 340 square millimeters
- number of surviving animals out of test group ([1]; Day 17): 7/10
- average tumor size ([1]; Day 23): 680 square millimeters
- number of surviving animals out of test group ([1]; Day 23): 6/10
- average tumor size ([1]; Day 28): 1050 square millimeters
- number of surviving animals out of test group ([1]; Day 28): 1/10
- animals that had died out of ten [2]: All ten

Structure (SMILES): O=c1[nH]cc(F)c(=O)[nH]1 [5 FU, 5-fluorouracil]
- number of surviving animals out of test group ([3]; Day 0): 5/5
- average tumor size ([3]; Day 10): 490 square millimeters
- number of surviving animals out of test group ([3]; Day 10): 5/5
- average tumor size ([3]; Day 14): 490 square millimeters
- number of surviving animals out of test group ([3]; Day 14): 4/5
- number of surviving animals out of test group ([3]; Day 18): 0/5
- number of tumor free animals out of those still living ([4]; Day 0): 0/10
- average tumor size ([4]; Day 5): 95 square millimeters
- number of tumor free animals out of those still living ([4]; Day 5): 0/10
- average tumor size ([4]; Day 12): 350 square millimeters
- number of tumor free animals out of those still living ([4]; Day 12): 0/10
- average tumor size ([4]; Day 17): 630 square millimeters
- number of tumor free animals out of those still living ([4]; Day 17): 0/9
- average tumor size ([4]; Day 23): 680 square millimeters
- number of tumor free animals out of those still living ([4]; Day 23): 0/6
- number of tumor free animals out of those still living ([4]; Day 29): 0/0
- number of tumor free animals out of those still living ([4]; Day 73): 0/0
- effectiveness in the treatment of the 755 adenocarcinoma ([4]; mice, summary in words of Table 6): ineffective
